Laboratory results: patent publication US20230365533A1, “BICYCLOHEPTANE PYRROLIDINE OREXIN RECEPTOR AGONISTS” (MERCK SHARP & DOHME CORP., priority 2021, published 2023)

These compounds were tested against T1, human OX2R (Homo sapiens, UniProt O43614) (assay: IPOne (IP-1) orexin receptor agonist assay in CHO cells expressing human OX2R). Conditions: IPOne assay, CHO cells expressing human OX2R, 2 hours incubation; read-out: hoX2R_IP IC50.
T1 construct: expressed in transfected cells; host or cells: CHO (Chinese hamster ovary) cells, grown under G418 selection
T1 sequence (O43614 1-444): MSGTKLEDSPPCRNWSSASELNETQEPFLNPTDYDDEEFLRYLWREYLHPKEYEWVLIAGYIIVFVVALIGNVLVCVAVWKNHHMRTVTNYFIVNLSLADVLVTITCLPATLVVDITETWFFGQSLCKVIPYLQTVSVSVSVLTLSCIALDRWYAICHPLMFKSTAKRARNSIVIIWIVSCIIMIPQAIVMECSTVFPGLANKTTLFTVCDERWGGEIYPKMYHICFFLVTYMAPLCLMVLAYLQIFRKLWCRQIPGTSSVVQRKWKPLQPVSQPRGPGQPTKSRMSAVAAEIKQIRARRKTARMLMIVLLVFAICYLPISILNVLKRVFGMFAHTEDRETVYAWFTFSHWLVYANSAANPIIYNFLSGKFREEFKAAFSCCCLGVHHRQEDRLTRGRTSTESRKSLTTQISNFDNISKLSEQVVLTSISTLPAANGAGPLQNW
Assay type: cell-based
From the text: The utility of the compounds in accordance with the present invention as orexin receptor OX1R and/or OX2R agonists may be readily determined without undue experimentation by methodology well known in the art. Both the OX1R and/or OX2R G-coupled protein receptors (GPCRs) couple through the Gaq signaling pathway, which ultimately promotes calcium mobilization via inositol triphosphate (IP3) production. The half-life of IP-3 is relatively short, being rapidly metabolized to inositol monophosphate (IP-1), which can be readily detected using a commercially available assay kit (IP-One; Cisbio; cat #621PAPEC) coupled with a cell line expressing the target receptor(s) of interest. The utility of the compounds in accordance with the present invention as orexin receptor OX1R and/or OX2R agonists may be determined utilizing this assay.
In a typical experiment, the OX1 and OX2 receptor agonist activity is determined in accordance with the following general experimental method. Chinese hamster ovary (CHO) cells expressing human OX1R and/or the human OX2R were grown in Iscove's modified DMEM containing glutaMAX™, 1% G418, 100 U/mL penicillin, 100 μg/mL streptomycin and 10% heat-inactivated qualified fetal bovine serum (FBS). The OX2R cells were seeded at 10,000 cells/well/50 μL and the OX1R cells were seeded at 20,000 cells/well/50 μL into 384-well white tissue culture plates (Greiner; cat #781080). All cell/media reagents were from GIBCO-Invitrogen Corp. The seeded cell plate(s) were incubated at 37° C. with 5% CO2 and 85% humidity for 20-24 hours. On the day of the assay, assay-ready compound plates were prepared using an acoustic liquid handler (ECHO; Labcyte), which dispensed sufficient volume of test compound stock (10 mM in DMSO) or 100% DMSO to prepare 10 point, ½-log dilutions in a final volume of 202.5 nL/well in all test wells of a 384-well diamond plate (Labcyte). Following completion of assay-ready plates, importantly, the next three steps were performed with minimal delay: 1) 20 μl of 1×stimulation buffer was added to the compound plate using a Multidrop Combi (small cassette, Thermo Fisher Scientific cat #24073290); 2) culture medium was removed from the cell plate using the Bluewasher plate washer (gentle spin; BlueCatBio); 3) 14 μl of compound/stimulation buffer mixture was added to the cell plate using a Bravo liquid handler (Agilent) prior to incubating cell plates at 37° C. with 5% CO2 and 85% humidity for 1 or 2 hours (OX1R and OX2R, respectively). During this incubation, IP-one detection reagents were prepared (38:1:1 lysis buffer:D2:AB-cryptate reagents). Six μL of mixed detection reagents were added to the cell plate using a Multidrop Combi (small cassette, Thermo Fisher Scientific cat #24073290) and incubated 60 minutes at room temperature in the dark. Fluorescence signal was detected using an Envision plate reader (Perkin Elmer) [LANCE/DELFIA Dual Enh (Em: APC 665; Ex: Cy5 620)].
For each compound, data were fit to a four parameter logistic fit (ActivityBase software) and the EC50 was reported as the inflection point of the resulting curve. Percent effect for each test compound was determined as the percentage of sample raw value/mean max effect, where the mean max effect was derived from the mean raw value of 32 control wells per assay plate (using Orexin A (cat #003-30) at 1 μM for human OX1R and a reference compound at 1 uM with 100% activity previously established by comparison to Orexin A for human OX2R). The intrinsic orexin receptor agonist activity of a compound which may be used in the present invention may be determined by these assays.

Row | Structure (SMILES) | IC50
1 | CCS(=O)(=O)N[C@H]1C[C@@H](C)N(C(=O)OC)[C@H]1CO[C@@H]1CC[C@]2(c3ncc(F)cn3)C[C@@H]2C1 [Example 47, methyl (2R,3S,5R)-3-(ethylsulfonamido)-2-((((1R,3R,6S)-6-(5-fluoropyrimidin-2-yl)bicyclo[4.1.0]heptan-3-yl)oxy)methyl)-5-methylpyrrolidine-1-carboxylate] | 13.8 nM
2 | COC(=O)N1[C@H](C)C[C@H](NS(=O)(=O)N(C)C)[C@@H]1COC1CCC2(c3ccccn3)CC2C1 (stereo partly drawn) [Example 9, methyl (2R,3S,5R)-3-((N,N-dimethylsulfamoyl)amino)-5-methyl-2-(((6-(pyridin-2-yl)bicyclo[4.1.0]heptan-3-yl)oxy)methyl)pyrrolidine-1-carboxylate] | 28.8 nM
3 | COC(=O)N1[C@H](C)C[C@H](NS(=O)(=O)C2CC2)[C@@H]1CO[C@H]1CC[C@@]2(c3ncc(F)cn3)C[C@H]2C1 [Example 42, methyl (2R,3S,5R)-3-(cyclopropanesulfonamido)-2-((((1S,3S,6R)-6-(5-fluoropyrimidin-2-yl)bicyclo[4.1.0]heptan-3-yl)oxy)methyl)-5-methylpyrrolidine-1-carboxylate] | 3 nM
4 | C[C@@H]1C[C@H](NS(C)(=O)=O)[C@H](CO[C@H]2CC[C@@]3(c4ncc(F)cn4)C[C@H]3C2)N1C(=O)OCC(F)(F)F [Example 65, 2,2,2-trifluoroethyl (2R,3S,5R)-2-((((1S,3S,6R)-6-(5-fluoropyrimidin-2-yl)bicyclo[4.1.0]heptan-3-yl)oxy)methyl)-5-methyl-3-(methylsulfonamido)pyrrolidine-1-carboxylate] | 1.6 nM
5 | CC(C)OC(=O)N1[C@H](C)C[C@H](NS(C)(=O)=O)[C@@H]1CO[C@H]1CC[C@@]2(c3ncc(F)cn3)C[C@H]2C1 (single isomer, unassigned) [Example 28] | 3.4 nM
6 | COC(=O)N1CC[C@H](NS(C)(=O)=O)[C@@H]1COC1CCC2(c3ncccn3)CC2C1 (stereo partly drawn) [Example 185, methyl (2R,3S)-3-(methylsulfonamido)-2-(((6-(pyrimidin-2-yl)bicyclo[4.1.0]heptan-3-yl)oxy)methyl)pyrrolidine-1-carboxylate] | 1620 nM
7 | C[C@@H]1C[C@H](NS(C)(=O)=O)[C@H](CO[C@H]2CC[C@@]3(c4ncc(F)cn4)C[C@H]3C2)N1C(=O)OCC1CC1(F)F (stereo partly drawn) [Example 59, (2,2-difluorocyclopropyl)methyl (2R,3S,5R)-2-((((1S,3S,6R)-6-(5-fluoropyrimidin-2-yl)bicyclo[4.1.0]heptan-3-yl)oxy)methyl)-5-methyl-3-(methylsulfonamido)pyrrolidine-1-carboxylate] | 0.71 nM
8 | C[C@@H]1C[C@H](NS(C)(=O)=O)[C@H](CO[C@H]2CC[C@@]3(c4ncc(F)cn4)C[C@H]3C2)N1C(=O)OCCF [Example 62, 2-Fluoroethyl (2R,3S,5R)-2-((((1S,3S,6R)-6-(5-fluoropyrimidin-2-yl)bicyclo[4.1.0]heptan-3-yl)oxy)methyl)-5-methyl-3-(methylsulfonamido)pyrrolidine-1-carboxylate] | 1.7 nM
9 | COC(=O)N1[C@H](C)C[C@H](NS(C)(=O)=O)[C@@H]1COC1CCC2(c3ncc(F)c(C(F)F)n3)CC2C1 (stereo partly drawn) [Example 73, methyl (2R,3S,5R)-2-(((6-(4-(difluoromethyl)-5-fluoropyrimidin-2-yl)bicyclo[4.1.0]heptan-3-yl)oxy)methyl)-5-methyl-3-(methylsulfonamido)pyrrolidine-1-carboxylate] | 220 nM
10 | COC(=O)N1[C@H](C)C[C@H](NS(C)(=O)=O)[C@@H]1COC1CCC2(c3nc4c(F)ccc(F)c4s3)CC2C1 (stereo partly drawn) [Example 71, methyl (2R,3S,5R)-2-(((6-(4,7-difluorobenzo[d]thiazol-2-yl)bicyclo[4.1.0]heptan-3-yl)oxy)methyl)-5-methyl-3-(methylsulfonamido)pyrrolidine-1-carboxylate] | 832 nM
11 | COC(=O)N1[C@H](C)C[C@H](NS(=O)(=O)Cc2ccccc2)[C@@H]1CO[C@@H]1CC[C@]2(c3ncc(F)cn3)C[C@@H]2C1 [Example 45, methyl (2R,3S,5R)-2-((((1R,3R,6S)-6-(5-fluoropyrimidin-2-yl)bicyclo[4.1.0]heptan-3-yl)oxy)methyl)-5-methyl-3-((phenylmethyl)sulfonamido)pyrrolidine-1-carboxylate] | 173 nM
12 | COC(=O)N1[C@H](C)C[C@H](NS(=O)(=O)C(F)F)[C@@H]1CO[C@H]1CC[C@@]2(c3ncccn3)C[C@H]2C1 (single isomer, unassigned) [Example 68] | 1.5 nM

Continued by falling IC50, values first:

Row | IC50 | Structure (SMILES)
13 | 86.4 nM | COC(=O)N1[C@H](C)C[C@H](NS(C)(=O)=O)[C@@H]1CO[C@@H]1CC[C@]2(c3ncc(Cl)cn3)C[C@@H]2C1 (single isomer, unassigned) [Example 141]
14 | 8 nM | CC(C)OC(=O)N1[C@H](C)C[C@H](NS(C)(=O)=O)[C@@H]1CO[C@@H]1CC[C@]2(c3ncc(F)cn3)C[C@@H]2C1 (single isomer, unassigned) [Example 29]
15 | 6.1 nM | CC(C)OC(=O)N1CCC[C@H](NS(=O)(=O)C2CC2)[C@@H]1COC1CCC2(c3ncc(F)cn3)CC2C1 (stereo partly drawn) [Example 122, isopropyl (2R,3S)-3-(cyclopropanesulfonamido)-2-(((6-(5-fluoropyrimidin-2-yl)bicyclo[4.1.0]heptan-3-yl)oxy)methyl)piperidine-1-carboxylate]
16 | 2 nM | COC(=O)N1[C@H](C)C[C@H](NS(=O)(=O)N2CCC2)[C@@H]1CO[C@H]1CC[C@@]2(c3ncc(F)cn3)C[C@H]2C1 [Example 39, methyl (2R,3S,5R)-3-(azetidine-1-sulfonamido)-2-((((1S,3S,6R)-6-(5-fluoropyrimidin-2-yl)bicyclo[4.1.0]heptan-3-yl)oxy)methyl)-5-methylpyrrolidine-1-carboxylate]
17 | 2 nM | CC(F)COC(=O)N1[C@H](C)C[C@H](NS(C)(=O)=O)[C@@H]1CO[C@H]1CC[C@@]2(c3ncc(F)cn3)C[C@H]2C1 (stereo partly drawn) [Example 58, 2-fluoropropyl (2R,3S,5R)-2-((((1S,3S,6R)-6-(5-fluoropyrimidin-2-yl)bicyclo[4.1.0]heptan-3-yl)oxy)methyl)-5-methyl-3-(methylsulfonamido)pyrrolidine-1-carboxylate]
18 | 1.4 nM | C[C@@H]1C[C@H](NS(C)(=O)=O)[C@H](CO[C@H]2CC[C@@]3(c4ncc(F)cn4)C[C@H]3C2)N1C(=O)OCCC(F)F [Example 52, 3,3-difluoropropyl (2R,3S,5R)-2-((((1S,3S,6R)-6-(5-fluoropyrimidin-2-yl)bicyclo[4.1.0]heptan-3-yl)oxy)methyl)-5-methyl-3-(methylsulfonamido)pyrrolidine-1-carboxylate]
19 | 0.94 nM | COC(=O)N1[C@H](C)C[C@H](NS(=O)(=O)N(C)C)[C@@H]1COC1CCC2(c3ncccn3)CC2C1 (stereo partly drawn) [Example 6, methyl (2R,3S,5R)-3-((N,N-dimethylsulfamoyl)amino)-5-methyl-2-(((6-(pyrimidin-2-yl)bicyclo[4.1.0]heptan-3-yl)oxy)methyl)pyrrolidine-1-carboxylate]
